Earlier results as cited in publication PMC10017685 (Nature Communications, 2023).
Like-named read-outs stand apart in the source and are kept apart here.

Test system: human erythrocytes
Set-up: method as in DBAASP
Settings: cited from earlier work
[1] = toxicity class label 1 or 0, meaning of the labels not given, DBAASP HC50 data, human erythrocytes, ref DBAASP

## NILNTIINLAKKIL [DBAASP_3562]
[1]
  Class (dedicated toxicity dataset used for toxicity classifier evaluation): 0

## GFWGKLWEGVKNAI [DBAASP_3479]
[1]
  Class (dedicated toxicity dataset used for toxicity classifier evaluation): 1

## GLKKIFKKGLGSLVKGIAAHVAS [DBAASP_4410]
[1]
  Class (dedicated toxicity dataset used for toxicity classifier evaluation): 0

## GIWDTIKSMGKVFAGLILQNL [DBAASP_701]
[1]
  Class (dedicated toxicity dataset used for toxicity classifier evaluation): 1

## ALYKTMLKKLGTMAL [DBAASP_10103]
[1]
  Class (dedicated toxicity dataset used for toxicity classifier evaluation): 0

## GWKKWFTKGERLSQRHFA [DBAASP_1000]
[1]
  Class (dedicated toxicity dataset used for toxicity classifier evaluation): 0

## GLFDKWAWWRWRR [DBAASP_10050]
[1]
  Class (dedicated toxicity dataset used for toxicity classifier evaluation): 0

## FLSLIPAAISAVSALANHF [DBAASP_10851]
[1]
  Class (dedicated toxicity dataset used for toxicity classifier evaluation): 0

## KRIVQRIKDFLR [DBAASP_146]
[1]
  Class (dedicated toxicity dataset used for toxicity classifier evaluation): 0

## VKWRWKWKWRWKWKWKV [DBAASP_8777]
[1]
  Class (dedicated toxicity dataset used for toxicity classifier evaluation): 0

## FLSLIPHIVSGVASIAKHF [DBAASP_3889]
[1]
  Class (dedicated toxicity dataset used for toxicity classifier evaluation): 0

## GFKDLLKGAAKALVKTVKF [DBAASP_4910]
[1]
  Class (dedicated toxicity dataset used for toxicity classifier evaluation): 0

## FLQHIIGALTHIF [DBAASP_10246]
[1]
  Class (dedicated toxicity dataset used for toxicity classifier evaluation): 0

## IAGKIAKIAGKIAKIAGKIA [DBAASP_14993]
  Class (dedicated toxicity dataset used for toxicity classifier evaluation): 1

## FLPLVTMLLGKLF [DBAASP_3105]
[1]
  Class (dedicated toxicity dataset used for toxicity classifier evaluation): 1

## GLLKRIKTLL [DBAASP_3116]
[1]
  Class (dedicated toxicity dataset used for toxicity classifier evaluation): 0

## FLPIVTNLLSGLL [DBAASP_2205]
[1]
  Class (dedicated toxicity dataset used for toxicity classifier evaluation): 0

## GLLKRIKTL [DBAASP_13873]
[1]
  Class (dedicated toxicity dataset used for toxicity classifier evaluation): 1

## KKVLKAAA [DBAASP_7365]
[1]
  Class (dedicated toxicity dataset used for toxicity classifier evaluation): 1

## ALWKTMLKKLGTMAL [DBAASP_10095]
[1]
  Class (dedicated toxicity dataset used for toxicity classifier evaluation): 0

## ILPILGNLLNGLL [DBAASP_3402]
[1]
  Class (dedicated toxicity dataset used for toxicity classifier evaluation): 0

## RIWFQNRRMRWRR [DBAASP_8801]
[1]
  Class (dedicated toxicity dataset used for toxicity classifier evaluation): 0

## FFGKVLKLIRKIF [DBAASP_2255]
[1]
  Class (dedicated toxicity dataset used for toxicity classifier evaluation): 1

## GVVDILKGAAKDLAGHLATKVMNKL [DBAASP_4357]
[1]
  Class (dedicated toxicity dataset used for toxicity classifier evaluation): 0

## GFKDLLKGAKKALVKTVLF [DBAASP_4907]
[1]
  Class (dedicated toxicity dataset used for toxicity classifier evaluation): 0

## GFKDLLKGAAKALVKTVLF [DBAASP_2302]
[1]
  Class (dedicated toxicity dataset used for toxicity classifier evaluation): 0

## KKYLLPIVGNLLKSLL [DBAASP_7638]
[1]
  Class (dedicated toxicity dataset used for toxicity classifier evaluation): 0

## FLSAITSLLGKLL [DBAASP_4212]
[1]
  Class (dedicated toxicity dataset used for toxicity classifier evaluation): 0

## VKRWKKFWRKWKKWW [DBAASP_8774]
[1]
  Class (dedicated toxicity dataset used for toxicity classifier evaluation): 0

## AIGSILGALAKGLPTLISWIKNR [DBAASP_2156]
[1]
  Class (dedicated toxicity dataset used for toxicity classifier evaluation): 1

## RWFKIQLQIRRWKNKK [DBAASP_8805]
[1]
  Class (dedicated toxicity dataset used for toxicity classifier evaluation): 0

## AAKKGCWTVSIPPKPCF [DBAASP_12530]
[1]
  Class (dedicated toxicity dataset used for toxicity classifier evaluation): 0

## KWKVFKKIEKMIRNIRNKIAK [DBAASP_11865]
[1]
  Class (dedicated toxicity dataset used for toxicity classifier evaluation): 0

## VRRFPAAAPFLRR [DBAASP_14271]
[1]
  Class (dedicated toxicity dataset used for toxicity classifier evaluation): 0

## WLRRIGKGVKIIGGAALDHL [DBAASP_5344]
[1]
  Class (dedicated toxicity dataset used for toxicity classifier evaluation): 0

## GILSSLLKKLKKIIAK [DBAASP_8905]
  Class (dedicated toxicity dataset used for toxicity classifier evaluation): 0

## IKKIVSKIKKVLK [DBAASP_7246]
[1]
  Class (dedicated toxicity dataset used for toxicity classifier evaluation): 0

## IKKILSKIKKLL [DBAASP_10745]
[1]
  Class (dedicated toxicity dataset used for toxicity classifier evaluation): 0

## FIHHAAGGLFSAGKAIHRLIRRRRR [DBAASP_17363]
[1]
  Class (dedicated toxicity dataset used for toxicity classifier evaluation): 0

## GWLDVAKKIGKAAFNVAKNFI [DBAASP_7670]
[1]
  Class (dedicated toxicity dataset used for toxicity classifier evaluation): 1

## GIIKKIIKKIIKK [DBAASP_13882]
[1]
  Class (dedicated toxicity dataset used for toxicity classifier evaluation): 0

## KIAKIAGKIAKIAGKIA [DBAASP_14992]
[1]
  Class (dedicated toxicity dataset used for toxicity classifier evaluation): 0

## GIWKTIKSMGKVFAGAILQNL [DBAASP_704]
[1]
  Class (dedicated toxicity dataset used for toxicity classifier evaluation): 0

## GILNTIKSIASKLKRKAK [DBAASP_5477]
[1]
  Class (dedicated toxicity dataset used for toxicity classifier evaluation): 0

## SAVWRRWRRFWLRKRRKR [DBAASP_9990]
[1]
  Class (dedicated toxicity dataset used for toxicity classifier evaluation): 0

## FLPILAGLAANILPKVFCSITKKC [DBAASP_4221]
[1]
  Class (dedicated toxicity dataset used for toxicity classifier evaluation): 1

## GLLKVIKTLL [DBAASP_3135]
[1]
  Class (dedicated toxicity dataset used for toxicity classifier evaluation): 0

## ILGKLLSTAAGLLKNL [DBAASP_4363]
[1]
  Class (dedicated toxicity dataset used for toxicity classifier evaluation): 0

## RRWCVYAYVRVRGVRVYAYVCW [DBAASP_13506]
[1]
  Class (dedicated toxicity dataset used for toxicity classifier evaluation): 0

## IKKIVSKIKKLLK [DBAASP_7245]
[1]
  Class (dedicated toxicity dataset used for toxicity classifier evaluation): 0

## FLKGIVGMLGKLF [DBAASP_8203]
[1]
  Class (dedicated toxicity dataset used for toxicity classifier evaluation): 1

## GLLKRIKSLL [DBAASP_8600]
[1]
  Class (dedicated toxicity dataset used for toxicity classifier evaluation): 0

## GLLKRIKT [DBAASP_13874]
[1]
  Class (dedicated toxicity dataset used for toxicity classifier evaluation): 0

## GMLKRIKTLL [DBAASP_8628]
[1]
  Class (dedicated toxicity dataset used for toxicity classifier evaluation): 0

## FLSTLLNVASKVVPTLFCKITKKC [DBAASP_1891]
[1]
  Class (dedicated toxicity dataset used for toxicity classifier evaluation): 0

## GLNALKKVFKGIHEAIKLINNHVQ [DBAASP_6924]
[1]
  Class (dedicated toxicity dataset used for toxicity classifier evaluation): 0

## RWFRIQLQIRRWRNRR [DBAASP_8807]
[1]
  Class (dedicated toxicity dataset used for toxicity classifier evaluation): 0

## WKIFKLKLRMLW [DBAASP_13717]
[1]
  Class (dedicated toxicity dataset used for toxicity classifier evaluation): 1

## VRRFAWWWAFLRR [DBAASP_5137]
[1]
  Class (dedicated toxicity dataset used for toxicity classifier evaluation): 0

## FLSLIPKAISAVSALANHF [DBAASP_12626]
[1]
  Class (dedicated toxicity dataset used for toxicity classifier evaluation): 0

## GLNAFKKVFQGIHEAIKLINNHVQ [DBAASP_6933]
[1]
  Class (dedicated toxicity dataset used for toxicity classifier evaluation): 0

## FLIGMTQGLICLITRKC [DBAASP_1477]
[1]
  Class (dedicated toxicity dataset used for toxicity classifier evaluation): 0

## FLRFIGSVIHGIGHLVHHIGVAL [DBAASP_4193]
[1]
  Class (dedicated toxicity dataset used for toxicity classifier evaluation): 0

## GMATKAGTAFGKAAKAIIGAAL [DBAASP_5720]
[1]
  Class (dedicated toxicity dataset used for toxicity classifier evaluation): 0

## GFKKLLKGAAKALVKTVLF [DBAASP_4900]
[1]
  Class (dedicated toxicity dataset used for toxicity classifier evaluation): 1

## CWKWKWKWGSGWKWKWKWC [DBAASP_353]
[1]
  Class (dedicated toxicity dataset used for toxicity classifier evaluation): 0

## GIFDVLKNLAKGVITSLAS [DBAASP_16392]
[1]
  Class (dedicated toxicity dataset used for toxicity classifier evaluation): 0

## FFHHFARGIVHVGKTIHRLVTG [DBAASP_9009]
[1]
  Class (dedicated toxicity dataset used for toxicity classifier evaluation): 0

## ILGKLLSTAAGLLSKL [DBAASP_4364]
[1]
  Class (dedicated toxicity dataset used for toxicity classifier evaluation): 0

## FFHHAFRGIVHVGKTIHRLVTG [DBAASP_9003]
[1]
  Class (dedicated toxicity dataset used for toxicity classifier evaluation): 0

## SAVGRHLRRFGLRKHRKH [DBAASP_7659]
[1]
  Class (dedicated toxicity dataset used for toxicity classifier evaluation): 0

## WWWLKKIW [DBAASP_9820]
[1]
  Class (dedicated toxicity dataset used for toxicity classifier evaluation): 0

## GWLPTFGKILRKAMQLGPKLIQPI [DBAASP_5715]
[1]
  Class (dedicated toxicity dataset used for toxicity classifier evaluation): 0

## VRRFPWYWPFLRR [DBAASP_14260]
[1]
  Class (dedicated toxicity dataset used for toxicity classifier evaluation): 0

## FPVTFRFFKFFKG [DBAASP_9715]
[1]
  Class (dedicated toxicity dataset used for toxicity classifier evaluation): 0

## IIKKIIKKIIKK [DBAASP_13883]
[1]
  Class (dedicated toxicity dataset used for toxicity classifier evaluation): 0

## GIWKTIKSMGKVFAGKILQNL [DBAASP_699]
[1]
  Class (dedicated toxicity dataset used for toxicity classifier evaluation): 0

## GLLKVIKVLL [DBAASP_3150]
[1]
  Class (dedicated toxicity dataset used for toxicity classifier evaluation): 1

## GLLKAIKTLL [DBAASP_3121]
[1]
  Class (dedicated toxicity dataset used for toxicity classifier evaluation): 0

## FLKGIVGMLGKLW [DBAASP_9113]
[1]
  Class (dedicated toxicity dataset used for toxicity classifier evaluation): 1

## INWIKIGKKIIASL [DBAASP_18234]
[1]
  Class (dedicated toxicity dataset used for toxicity classifier evaluation): 0

## GLLDLLKGAGKGLLTHLASQI [DBAASP_16389]
[1]
  Class (dedicated toxicity dataset used for toxicity classifier evaluation): 0

## FIHHIIGGLFSAGKAIHRLIRRRRR [DBAASP_5623]
[1]
  Class (dedicated toxicity dataset used for toxicity classifier evaluation): 1

## CVKVKVKVGSGVKVKVKVC [DBAASP_347]
[1]
  Class (dedicated toxicity dataset used for toxicity classifier evaluation): 0

## GLLKRIKNLL [DBAASP_3146]
[1]
  Class (dedicated toxicity dataset used for toxicity classifier evaluation): 0

## FLPILASLAAKLGPKLFCLVTKKC [DBAASP_3537]
[1]
  Class (dedicated toxicity dataset used for toxicity classifier evaluation): 1

## LALKSGGWLRLFGLKDKKH [DBAASP_6706]
[1]
  Class (dedicated toxicity dataset used for toxicity classifier evaluation): 0

## FLSGIVGMLGKLF [DBAASP_2204]
[1]
  Class (dedicated toxicity dataset used for toxicity classifier evaluation): 1

## ALWKTMLKKLGTM [DBAASP_10093]
[1]
  Class (dedicated toxicity dataset used for toxicity classifier evaluation): 0
